Source: ChEMBL document CHEMBL3621110, “Discovery and Development of the Aryl O-Sulfamate Pharmacophore for Oncology and Women's Health” (J Med Chem, 2015)

Key:
Steryl-sulfatase [1] = biological target: T1, Steryl-sulfatase (Homo sapiens, UniProt P08842); assay type: microsomes, Placenta, Microsome
T1 sequence (P08842 whole entry): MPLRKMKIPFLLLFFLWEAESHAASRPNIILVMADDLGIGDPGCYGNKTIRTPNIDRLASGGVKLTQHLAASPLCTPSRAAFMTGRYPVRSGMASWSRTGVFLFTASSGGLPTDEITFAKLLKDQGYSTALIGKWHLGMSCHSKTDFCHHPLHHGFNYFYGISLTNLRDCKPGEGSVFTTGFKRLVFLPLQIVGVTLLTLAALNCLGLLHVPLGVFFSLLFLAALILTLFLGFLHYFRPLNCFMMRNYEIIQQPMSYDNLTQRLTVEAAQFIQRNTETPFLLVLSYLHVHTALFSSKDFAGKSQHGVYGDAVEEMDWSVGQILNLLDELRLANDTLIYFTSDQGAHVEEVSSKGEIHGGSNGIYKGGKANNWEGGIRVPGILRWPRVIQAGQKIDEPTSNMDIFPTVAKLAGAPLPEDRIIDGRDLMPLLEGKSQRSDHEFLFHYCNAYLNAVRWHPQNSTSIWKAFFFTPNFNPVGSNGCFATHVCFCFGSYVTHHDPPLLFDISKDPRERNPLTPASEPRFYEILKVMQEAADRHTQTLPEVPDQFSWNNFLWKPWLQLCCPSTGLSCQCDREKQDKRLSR

Steryl-sulfatase [2] = biological target: T1, Steryl-sulfatase; assay type: cell-based, MCF7
MDA-MB-231 [3] = assay: cells; assay type: functional; details: Homo sapiens
DU-145 = assay: cells; assay type: functional; details: Homo sapiens
Rattus norvegicus [4] = organism: Rattus norvegicus; assay: animal or person; assay type: functional; details: Wistar, po, 3 h
Rattus norvegicus [5] = organism: Rattus norvegicus; assay: animal or person; assay type: functional; details: Wistar, po, 3 h; remark: listed apart in the source
Steryl-sulfatase [6] = biological target: T1, Steryl-sulfatase; assay type: cell-based, JEG-3
Estrogen receptor = biological target: T2, Estrogen receptor (Homo sapiens, UniProt P03372)
T2 sequence (P03372 whole entry): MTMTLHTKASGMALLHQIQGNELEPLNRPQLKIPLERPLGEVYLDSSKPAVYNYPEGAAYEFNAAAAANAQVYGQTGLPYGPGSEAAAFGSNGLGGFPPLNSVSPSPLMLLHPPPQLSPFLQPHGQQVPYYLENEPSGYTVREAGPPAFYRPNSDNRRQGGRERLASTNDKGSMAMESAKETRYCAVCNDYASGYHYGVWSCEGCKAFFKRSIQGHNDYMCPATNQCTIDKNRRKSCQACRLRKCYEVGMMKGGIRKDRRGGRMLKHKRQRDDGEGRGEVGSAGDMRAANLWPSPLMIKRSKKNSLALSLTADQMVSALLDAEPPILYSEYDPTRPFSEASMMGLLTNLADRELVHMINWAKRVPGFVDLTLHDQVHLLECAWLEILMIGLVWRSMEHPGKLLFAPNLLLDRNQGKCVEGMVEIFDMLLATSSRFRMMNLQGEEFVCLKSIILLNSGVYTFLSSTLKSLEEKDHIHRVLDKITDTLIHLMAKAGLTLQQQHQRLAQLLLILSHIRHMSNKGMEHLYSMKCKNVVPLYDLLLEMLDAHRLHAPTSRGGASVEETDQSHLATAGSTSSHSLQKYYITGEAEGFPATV

LNCaP = assay: cells; assay type: functional, cell-based; details: Homo sapiens
cells [7] = assay type: functional, cell-based; details: Homo sapiens, PC-3
cells [8] = assay type: functional, cell-based; details: Homo sapiens, A2780 ADR
A2780cisR = assay: cells; assay type: functional, cell-based; details: Homo sapiens
MCF7 [9] = assay: cells; assay type: functional; details: Homo sapiens
Steryl-sulfatase [10] = biological target: T1, Steryl-sulfatase; set-up: species or system Placenta, Microsome
MCF7 [11] = assay: cells; assay type: functional; details: Homo sapiens; remark: listed apart in the source
MCF7 [12] = assay: animal or person; assay type: functional, Homo sapiens; details: Mus musculus, MCF7, po
MCF7 [13] = assay: cells; assay type: functional, cell-based; details: Homo sapiens
MDA-MB-231 [14] = assay: cells; assay type: functional, cell-based; details: Homo sapiens
Homo sapiens [15] = organism: Homo sapiens; assay type: functional
Homo sapiens [16] = organism: Homo sapiens; assay type: functional; remark: listed apart in the source

**Q.** With `C[C@]12CC[C@@H]3c4ccc(OS(N)(=O)=O)cc4CC[C@H]3[C@@H]1CC(=O)N(Cc1ccccc1)C2=O` as the compound, how does the IC50 (Steryl-sulfatase [1]) read?
**A.** Its IC50 is 3 nM.

**Q.** Which IC50 (Steryl-sulfatase [1]) does the source give for `C=CCN1C(=O)C[C@H]2[C@@H]3CCc4cc(OS(N)(=O)=O)ccc4[C@H]3CC[C@]2(C)C1=O` here?
**A.** The IC50 was 75 nM.

**Q.** With `CC/C(=C(/CC)c1ccc(OS(N)(=O)=O)cc1)c1ccc(OS(N)(=O)=O)cc1` as the compound, how does the IC50 (Steryl-sulfatase [2]) read?
**A.** The IC50 was 10 nM.

**Q.** What does the source list for `CCc1cc2c(cc1OS(N)(=O)=O)CCN(Cc1cc(OC)c(OC)c(OC)c1)C2`?
**A.** GI50 (MDA-MB-231 [3]): 52 nM; GI50 (DU-145): 41 nM

**Q.** Which results are given for `CCC1Cc2cc(OS(N)(=O)=O)c(OC)cc2CN1Cc1cccc(OC)c1` (centres undefined)?
**A.** GI50 (MDA-MB-231 [3]): 281 nM; GI50 (DU-145): 286 nM

**Q.** With `COc1ccc(F)c(CN2Cc3cc(OC)c(OS(N)(=O)=O)cc3CC2C)c1` (centres undefined) as the compound, how does the GI50 (MDA-MB-231 [3]) read?
**A.** The GI50 was 269 nM.

**Q.** What about the GI50 (DU-145) of the same compound?
**A.** The GI50 was 299 nM.

**Q.** With `COc1ccc(OC)c(CN2Cc3cc(OC)c(OS(N)(=O)=O)cc3CC2C)c1` (centres undefined) as the compound, how does the GI50 (MDA-MB-231 [3]) read?
**A.** The GI50 was 160 nM.

**Q.** What about the GI50 (DU-145) of the same compound?
**A.** The GI50 was 189 nM.

**Q.** What does the source list for `COc1cc2c(cc1OS(N)(=O)=O)CCN(Cc1cc(OC)c(OC)c(OC)c1)C2C` (centres undefined)?
**A.** GI50 (MDA-MB-231 [3]): 300 nM; GI50 (DU-145): 360 nM

**Q.** Which GI50 (MDA-MB-231 [3]) does the source give for `COc1cc2c(cc1OS(N)(=O)=O)CCN(Cc1cc(Cl)c(OC)c(OC)c1)C2` here?
**A.** The GI50 was 40 nM.

**Q.** And the GI50 (DU-145)?
**A.** Its GI50 is 40 nM.

**Q.** With `COc1cc2c(cc1OS(N)(=O)=O)CCN(Cc1cc(Br)c(OC)c(OC)c1)C2` as the compound, how does the GI50 (MDA-MB-231 [3]) read?
**A.** The GI50 was 30 nM.

**Q.** What about the GI50 (DU-145) of the same compound?
**A.** Its GI50 is 30 nM.

**Q.** Which GI50 (MDA-MB-231 [3]) does the source give for `CCc1cc2c(cc1OS(N)(=O)=O)CCN(Cc1cc(Br)c(OC)c(OC)c1)C2` here?
**A.** Its GI50 is 30 nM.

**Q.** What about the GI50 (DU-145) of the same compound?
**A.** Its GI50 is 20 nM.

**Q.** With `CCOc1c(OC)cc(CN2CCc3cc(OS(N)(=O)=O)c(OC)cc3C2)cc1OC` as the compound, how does the GI50 (MDA-MB-231 [3]) read?
**A.** The GI50 was 70 nM.

**Q.** What about the GI50 (DU-145) of the same compound?
**A.** The GI50 was 100 nM.

**Q.** For `N#Cc1ccc(N(CCSc2ccc(OS(N)(=O)=O)c(Cl)c2)n2cnnc2)cc1`, which inhibition in vivo at 10 mg/kg (Rattus norvegicus [4]) is on record?
**A.** The inhibition in vivo at 10 mg/kg was 92%.

**Q.** And the inhibition in vivo at 10 mg/kg (Rattus norvegicus [5])?
**A.** Its inhibition in vivo at 10 mg/kg is 98%.

**Q.** What about the IC50 (Steryl-sulfatase [6]) of the same compound?
**A.** Its IC50 is 1200 nM.

**Q.** With `N#Cc1ccc(N(Cc2ccc3cc(OS(N)(=O)=O)ccc3c2)n2cnnc2)cc1` as the compound, how does the IC50 (Steryl-sulfatase [6]) read?
**A.** The IC50 was 367 nM.

**Q.** With `N#Cc1ccc(N(Cc2ccc3c(Cl)c(OS(N)(=O)=O)ccc3c2)n2cnnc2)cc1` as the compound, how does the inhibition in vivo at 10 mg/kg (Rattus norvegicus [4]) read?
**A.** Its inhibition in vivo at 10 mg/kg is 93%.

**Q.** And the inhibition in vivo at 10 mg/kg (Rattus norvegicus [5])?
**A.** The inhibition in vivo at 10 mg/kg was 93%.

**Q.** And the IC50 (Steryl-sulfatase [6])?
**A.** The IC50 was 26 nM.

**Q.** For `N#Cc1ccc(N(Cc2ccc3c(Br)c(OS(N)(=O)=O)ccc3c2)n2cnnc2)cc1`, which IC50 (Steryl-sulfatase [6]) is on record?
**A.** Its IC50 is 205 nM.

**Q.** For `Cn1nnc2ccc(C(c3ccc(OS(N)(=O)=O)cc3)n3cncn3)cc21` (centres undefined), which IC50 (Steryl-sulfatase [6]) is on record?
**A.** Its IC50 is greater than 10000 nM.

**Q.** Which IC50 (Estrogen receptor) does the source give for `CCN(Cc1ccc(C(=O)N2CCc3ccc(O)cc3C2)cc1)Cc1ccccn1` here?
**A.** Its IC50 is 24600 nM.

**Q.** For `COc1cc2c(cc1OS(N)(=O)=O)CC[C@@H]1[C@@H]2CC[C@]2(C)C(=O)CC[C@@H]12`, which IC50 (LNCaP) is on record?
**A.** The IC50 was 100 nM.

**Q.** And the IC50 (cells [7])?
**A.** Its IC50 is 100 nM.

**Q.** What about the IC50 (cells [8]) of the same compound?
**A.** The IC50 was 100 nM.

**Q.** What about the IC50 (A2780cisR) of the same compound?
**A.** The IC50 was 100 nM.

**Q.** What about the inhibition at 1 µM (MCF7 [9]) of the same compound?
**A.** The inhibition at 1 µM was 52%.

**Q.** What about the IC50 (Steryl-sulfatase [10]) of the same compound?
**A.** The IC50 was 30 nM.

**Q.** What about the GI50 (MCF7 [11]) of the same compound?
**A.** The GI50 was 300 nM.

**Q.** For `COc1cc2c(cc1OS(N)(=O)=O)CC[C@@H]1[C@@H]2CC[C@]2(C)[C@@H](CC#N)CC[C@@H]12`, which inhibition in vivo at 20 mg/kg (MCF7 [12]) is on record?
**A.** Its inhibition in vivo at 20 mg/kg is 22%.

**Q.** And the IC50 (MCF7 [13])?
**A.** The IC50 was 70 nM.

**Q.** And the IC50 (MDA-MB-231 [14])?
**A.** The IC50 was 80 nM.

**Q.** For `N#Cc1ccc(N(Cc2ccc(OS(N)(=O)=O)cc2)n2cnnc2)cc1`, which inhibition in vivo at 10 mg/kg (Rattus norvegicus [5]) is on record?
**A.** The inhibition in vivo at 10 mg/kg was 39%.

**Q.** With `C[C@]12CC[C@@H]3c4ccc(OS(N)(=O)=O)cc4CC[C@H]3[C@@H]1CC[C@@H]2O` [E2MATE] as the compound, how does the “inhibition (INH)” value (Homo sapiens [15]) read?
**A.** Its value is 96%.

**Q.** What about the “inhibition (INH)” value (Homo sapiens [16]) of the same compound?
**A.** Its value is 91%.
